In ChEMBL document CHEMBL1150869, “Bombardolides: new antifungal and antibacterial gamma-lactones from the coprophilous fungus Bombardioidea anartia” (2001):

What was measured:
Assay type in all cases: functional
Conditions in all cases: read-out: IZ
Bacillus subtilis = experiment: Antimicrobial activity against Bacillus subtilis ATCC 6051 at 200 ug/disk by standard disk diffusion method
Staphylococcus aureus = experiment: Antimicrobial activity against Staphylococcus aureus ATCC 29213 at 200 ug/disk by standard disk diffusion method
Candida albicans = experiment: Antimicrobial activity against Candida albicans ATCC 10231 at 200 ug/disk by standard disk diffusion method

Row | Structure (SMILES) | zone of inhibition at 200 µg/disc (Bacillus subtilis) | zone of inhibition at 200 µg/disc (Staphylococcus aureus) | zone of inhibition at 200 µg/disc (Candida albicans)
1 | CC/C=C1/C=C(CCCO)C(=O)O1 [(E/Z)-BOMBARDOLIDE B] | 11 mm | – | –
2 | CC/C=C1C=C(/C=C/C(=O)O)C(=O)O/1 | 26 mm | 18 mm | –
3 | CCCC1C=C(/C=C/CO)C(=O)O1 (centres undefined) [BOMBARDOLIDE D] | – | – | 20 mm
4 | CCCCC(O)c1cccc(O)c1 (centres undefined) | 12 mm | 19 mm | –
5 | CC/C=C1C=C(/C=C/CO)C(=O)O/1 | 19 mm | 14 mm | 35 mm
